Source: patent publication US11479556B1, “Bifunctional compounds for degrading BTK via ubiquitin proteosome pathway” (NURIX THERAPEUTICS, INC., priority 2018, dated 2022)

target: T1, BTK (Homo sapiens, UniProt Q06187); test: Cellular BTK HTRF assay (BTK degradation) in TMD8 cells; assay type: cell-based; settings: four hours incubation, Total-BTK HTRF relative to DMSO-treated cells
T1 construct: endogenous in cells; host or cells: TMD8 cells
Procedure: Example 66: BTK Degradation Assay
TMD8 cells were obtained from Tokyo Medical and Dental University and were grown in alpha-MEM (Fisher 12571063) supplemented with 10% heat-inactivated FBS (Corning Premium Fetal Bovine Serum from Fisher, MT35015CV).
Compounds of the present invention were added to 50,000 TMD8 cells in round-bottom 96 well plates with a final DMSO concentration of […] and were incubated at 37° C. 5% CO2 for four hours. BTK levels were determined using Cisbio Total-BTK HTRF ([…] Time-Resolved Fluorescence) kit (63ADK064PEG) according to manufacturer's protocol. Briefly, cells were incubated in 1× supplied lysis buffer for 30 minutes. In an opaque white low volume 96 well plate (Cisbio, 66PL96005), cell lysate was combined with two different specific BTK antibodies, one conjugated with Eu^3+-Cryptate FRET donor and one conjugated with d2 FRET acceptor. Assay controls include wells containing cell lysate with only the Eu^3+-Cryptate FRET donor antibody and wells containing both HTRF antibodies and lysis buffer without cells or control lysate provided by Cisbio. HTRF ratio was calculated as (acceptor signal at 665 nm/donor signal at 620 nm)×10^4. Background HTRF levels were determined from the control well containing the donor, but no acceptor, antibody. Background HTRF levels were subtracted from all samples. Readouts were reported as HTRF levels relative to HTRF levels of DMSO-treated cells. Four-parameter non-linear regressions were performed in GraphPad Prism 7.02 to obtain DC50 values. DC50 values are provided in Table 3, wherein A<5.0 nM, 5.0 nM≤B≤15 nM, and 15 nM<C.

T1 sequence (Q06187 whole entry): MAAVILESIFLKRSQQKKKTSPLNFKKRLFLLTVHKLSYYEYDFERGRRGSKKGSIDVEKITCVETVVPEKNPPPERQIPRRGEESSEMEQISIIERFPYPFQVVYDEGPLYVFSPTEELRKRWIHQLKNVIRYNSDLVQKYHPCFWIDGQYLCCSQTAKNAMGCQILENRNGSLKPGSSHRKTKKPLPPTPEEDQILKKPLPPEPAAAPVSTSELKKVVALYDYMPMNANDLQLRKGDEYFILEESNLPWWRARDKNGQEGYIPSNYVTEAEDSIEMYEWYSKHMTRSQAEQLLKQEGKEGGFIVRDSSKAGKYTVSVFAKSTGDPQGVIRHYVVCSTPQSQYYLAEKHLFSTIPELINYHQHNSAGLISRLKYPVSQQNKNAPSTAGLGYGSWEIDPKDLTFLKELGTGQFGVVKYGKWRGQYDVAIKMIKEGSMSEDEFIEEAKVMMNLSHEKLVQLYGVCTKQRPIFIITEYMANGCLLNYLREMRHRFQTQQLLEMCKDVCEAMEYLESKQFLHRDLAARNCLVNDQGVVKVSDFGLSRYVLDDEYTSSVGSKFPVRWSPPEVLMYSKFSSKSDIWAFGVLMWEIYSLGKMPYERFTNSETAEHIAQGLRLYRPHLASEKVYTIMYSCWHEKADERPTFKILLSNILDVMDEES

Row | DC50 [nM] | SMILES
1 | < 5 | CN1CCN([C@H]2CCCN(c3cnc(C(N)=O)c(Nc4ccc(C5CCN(CC6CCN(c7ccc(C(=O)NC8CCC(=O)NC8=O)cc7)CC6)CC5)cc4)n3)C2)C1=O (stereo partly shown) [Compound 130]
2 | > 15 | CN1CCN([C@@H]2CCCN(c3cnc(C(N)=O)c(Nc4ccc(CCCNc5ccc6c(c5)C(=O)N(C5CCC(=O)NC5=O)C6=O)cc4)n3)C2)C1=O (stereo partly shown) [Compound 65]
3 | < 5 | NC(=O)c1ncc(N2CCCC3(COC3)C2)nc1Nc1ccc(C2CCN(C[C@H]3CCN(c4ccc5c(c4)C(=O)N(C4CCC(=O)NC4=O)C5=O)C3)CC2)cc1 (stereo partly shown) [Compound 126]
4 | < 5 | NC(=O)c1ncc(N2CCC[C@@H](CO)C2)nc1Nc1ccc(C2CCN(C[C@H]3CCN(c4ccc5c(c4)C(=O)N(C4CCC(=O)NC4=O)C5=O)C3)CC2)cc1 (stereo partly shown) [Compound 174]
5 | < 5 | CN1CCN(C2CCCN(c3cnc(C(N)=O)c(Nc4ccc(C5CCN(CC6CCN(c7ccc8c(c7)CN(C7CCC(=O)NC7=O)C8=O)C6)CC5)cc4)n3)C2)C1=O (stereo not shown) [Compound 152]
6 | < 5 | CN1CCN([C@@H]2CCCN(c3cnc(C(N)=O)c(Nc4ccc(C5CCN(CCC6CN(c7ccc8c(c7)C(=O)N(C7CCC(=O)NC7=O)C8=O)C6)CC5)cc4)n3)C2)C1=O (stereo partly shown) [Compound 45]
7 | < 5 | CN1CCN([C@H]2CCCN(c3cnc(C(N)=O)c(Nc4cnn(C5CCN(CC6CCN(c7ccc8c(c7)C(=O)N(C7CCC(=O)NC7=O)C8=O)CC6)CC5)c4)n3)C2)C1=O (stereo partly shown) [Compound 83]
8 | 5 to 15 | CN1CCN([C@H]2CCCN(c3cnc(C(N)=O)c(Nc4ccc(N5CC[C@H]6CCN(c7ccc8c(c7)C(=O)N(N7CCC(=O)NC7=O)C8=O)C[C@H]6C5)cc4)n3)C2)C1=O [Compound 106]
9 | < 5 | CN1CCN([C@@H]2CCCN(c3cnc(C(N)=O)c(Nc4ccc(N5CCC6(CC5)CCN(c5ccc7c(c5)C(=O)N(C5CCC(=O)NC5=O)C7=O)CC6)cc4)n3)C2)C1=O (stereo partly shown) [Compound 55]
10 | < 5 | CN1CCN([C@H]2CCCN(c3cnc(C(N)=O)c(Nc4cnn(C5CCN(C6CCN(c7ccc8c(c7)C(=O)N(C7CCC(=O)NC7=O)C8=O)CC6)CC5)c4)n3)C2)C1=O (stereo partly shown) [Compound 77]
11 | < 5 | CN1CCN([C@H]2CCCN(c3cnc(C(N)=O)c(Nc4ccc(C5CCN(CC6CN(c7ccc(-c8nn(C9CCC(=O)NC9=O)c(=O)n8C)cc7)C6)CC5)cc4)n3)C2)C1=O (stereo partly shown) [Compound 136]
12 | < 5 | CN1CCN([C@@H]2CCCN(c3cnc(C(N)=O)c(Nc4ccc(N5CCN(C[C@@H]6CCCN(c7ccc8c(c7)C(=O)N(C7CCC(=O)NC7=O)C8=O)C6)CC5)cc4)n3)C2)C1=O (stereo partly shown) [Compound 46]
13 | > 15 | CN1CCN([C@@H]2CCCN(c3cnc(C(N)=O)c(Nc4ccc(N5CCCC6(C5)CN(c5cccc7c5C(=O)N(C5CCC(=O)NC5=O)C7=O)C6)cc4)n3)C2)C1=O (stereo partly shown) [Compound 96]
14 | > 15 | CN1CCN([C@@H]2CCCN(c3cnc(C(N)=O)c(Nc4cccc(NC(=O)CCCN5CCN(c6ccc7c(c6)C(=O)N(C6CCC(=O)NC6=O)C7=O)CC5)c4)n3)C2)C1=O (stereo partly shown) [Compound 62]
15 | < 5 | NC(=O)c1ncc(N2CCC[C@H](N3CCCC3=O)C2)nc1Nc1ccc(C2CCN(CC3CCN(c4ccc5c(c4)CCN(C4CCC(=O)NC4=O)C5=O)CC3)CC2)cc1 (stereo partly shown) [Compound 122]
16 | < 5 | NC(=O)c1ncc(N2CCC2)nc1Nc1ccc(C2CCN(C[C@H]3CCN(c4ccc5c(c4)C(=O)N(C4CCC(=O)NC4=O)C5=O)C3)CC2)cc1 (stereo partly shown) [Compound 162]
17 | < 5 | CN1CCN([C@@H]2CCCN(c3cnc(C(N)=O)c(Nc4ccc(N5CCN(CC6CN(c7ccc8c(c7)C(=O)N(C7CCC(=O)NC7=O)C8=O)C6)CC5)cc4)n3)C2)C1=O (stereo partly shown) [Compound 82]
18 | 5 to 15 | CN1CCN([C@H]2CCCN(c3cnc(C(N)=O)c(Nc4ccc(N5CCCC6(C5)CN(c5ccc7c(c5)C(=O)N(C5CCC(=O)NC5=O)C7=O)C6)cc4)n3)C2)C1=O (stereo partly shown) [Compound 111]
19 | < 5 | CN1CCN([C@@H]2CCCN(c3cnc(C(N)=O)c(Nc4ccc(C5CCN(C[C@H]6CCN(c7ccc8c(=O)n(C9CCC(=O)NC9=O)ccc8c7)C6)CC5)cc4)n3)C2)C1=O (stereo partly shown) [Compound 115]
20 | > 15 | CN1CCN([C@H]2CCCN(c3cnc(C(N)=O)c(Nc4ccc(N5CC[C@@H]6CCN(c7ccc8c(c7)C(=O)N(N7CCC(=O)NC7=O)C8=O)C[C@H]6C5)cc4)n3)C2)C1=O [Compound 107]
21 | < 5 | CN1CCN([C@@H]2CCCN(c3cnc(C(N)=O)c(Nc4ccc(N5CCN(C[C@H]6CCCN(c7ccc8c(c7)C(=O)N(C7CCC(=O)NC7=O)C8=O)C6)CC5)cc4)n3)C2)C1=O (stereo partly shown) [Compound 48]
22 | < 5 | CN1CCN([C@@H]2CCCN(c3cnc(C(N)=O)c(Nc4ccc(N5CC6CN(CC7CN(c8ccc9c(c8)C(=O)N(C8CCC(=O)NC8=O)C9=O)C7)CC6C5)cc4)n3)C2)C1=O (stereo partly shown) [Compound 91]

Continued, compound first:

Row | SMILES | DC50 [nM]
23 | CN1CCN([C@@H]2CCCN(c3cnc(C(N)=O)c(Nc4ccc(C5CCN(CC6CCN(c7ccc(OC8CCC(=O)NC8=O)cn7)CC6)CC5)cc4)n3)C2)C1=O (stereo partly shown) [Compound 165] | 5 to 15
24 | CN1CCN([C@@H]2CCCN(c3cnc(C(N)=O)c(Nc4ccc(C5(C)CCN(C(=O)CCOCCOCCOCCNc6cccc7c6C(=O)N(C6CCC(=O)NC6=O)C7=O)CC5)cc4)n3)C2)C1=O (stereo partly shown) [Compound 27] | 5 to 15
25 | Cc1ncsc1-c1ccc(CNC(=O)[C@@H]2C[C@@H](O)CN2C(=O)[C@@H](NC(=O)C2(F)CC2)C(C)(C)C)c(OCCCCCC(=O)N2CCC(c3ccc(Nc4nc(N5CCC[C@@H](N6CCN(C)C6=O)C5)cnc4C(N)=O)cc3)CC2)c1 [Compound 187] | > 15
26 | Cn1cc(Nc2nc(N3CCC[C@@H](N4CCC5(CN(CC6CCN(c7ccc8c(=O)n(C9CCC(=O)NC9=O)ccc8c7)CC6)C5)C4=O)C3)cnc2C(N)=O)cn1 (stereo partly shown) [Compound 145] | < 5
27 | CN1CCN([C@@H]2CCCN(c3cnc(C(N)=O)c(Nc4ccc(C(=O)NCCOCCc5cccc6c5CN(C5CCC(=O)NC5=O)C6=O)cc4)n3)C2)C1=O (stereo partly shown) [Compound 9] | > 15
28 | CN1CCN([C@@H]2CCCN(c3cnc(C(N)=O)c(Nc4ccc(C5(C)CCN(C(=O)CN6CCN(CCCc7cccc8c7CN(C7CCC(=O)NC7=O)C8=O)CC6)CC5)cc4)n3)C2)C1=O (stereo partly shown) [Compound 20] | < 5
29 | CN1CCN([C@@H]2CCCN(c3cnc(C(N)=O)c(Nc4cccc(NC(=O)[C@H]5C[C@@H](OCCCc6cccc7c6C(=O)N(C6CCC(=O)NC6=O)C7=O)C5)c4)n3)C2)C1=O (stereo partly shown) [Compound 63] | > 15
30 | CN1CCN([C@@H]2CCCN(c3cnc(C(N)=O)c(Nc4ccc(C5CCN(C(=O)CCOCCOCCOCCNc6cccc7c6C(=O)N(C6CCC(=O)NC6=O)C7=O)CC5)cc4)n3)C2)C1=O (stereo partly shown) [Compound 24] | 5 to 15
31 | CN1CCN([C@H]2CCCN(c3cnc(C(N)=O)c(Nc4ccc(N5CCC6(CCCN(Cc7ccc8c(c7)C(=O)N(N7CCC(=O)NC7=O)C8=O)C6)CC5)cc4)n3)C2)C1=O [Compound 108] | 5 to 15
32 | NC(=O)c1ncc(N2CCC[C@@H](CO)C2)nc1Nc1ccc(C2CCN(CC3CCN(c4ccc(OC5CCC(=O)NC5=O)cn4)CC3)CC2)cc1 (stereo partly shown) [Compound 171] | < 5
33 | NC(=O)c1ncc(N2CCC[C@H](N3CCCC3=O)C2)nc1Nc1ccc(C2CN(CC3CCN(c4ccc5c(=O)n(C6CCC(=O)NC6=O)ccc5c4)CC3)C2)cc1 (stereo partly shown) [Compound 139] | < 5
34 | CN1CCN([C@@H]2CCCN(c3cnc(C(N)=O)c(Nc4ccc(C5CCN(CC6CCN(c7ccc(N(C)C8CCC(=O)NC8=O)cn7)CC6)CC5)cc4)n3)C2)C1=O (stereo partly shown) [Compound 180] | > 15
35 | CN1CCN([C@@H]2CCCN(c3cnc(C(N)=O)c(Nc4ccc(OCCCNC(=O)CCCc5cccc6c5CN(C5CCC(=O)NC5=O)C6=O)cc4)n3)C2)C1=O (stereo partly shown) [Compound 6] | > 15
36 | CN1CCN([C@@H]2CCCN(c3cnc(C(N)=O)c(Nc4ccc(C5(C)CCN(C6CC(Nc7cccc8c7C(=O)N(C7CCC(=O)NC7=O)C8=O)C6)CC5)cc4)n3)C2)C1=O (stereo partly shown) [Compound 66] | < 5
37 | CN1CCN([C@@H]2CCCN(c3cnc(C(N)=O)c(Nc4ccc(C5(C)CCN(CCCCc6cccc7c6CN(C6CCC(=O)NC6=O)C7=O)CC5)cc4)n3)C2)C1=O (stereo partly shown) [Compound 21] | 5 to 15
38 | CN1CCN([C@@H]2CCCN(c3cnc(C(N)=O)c(Nc4ccc(C(=O)NCCCCNc5cccc6c5C(=O)N(C5CCC(=O)NC5=O)C6=O)cc4)n3)C2)C1=O (stereo partly shown) [Compound 8] | 5 to 15
39 | NC(=O)c1ncc(N2CCCCC2)nc1Nc1ccc(N2CCC3(CC2)CCN(c2ccc4c(c2)C(=O)N(C2CCC(=O)NC2=O)C4=O)CC3)cc1 (stereo not shown) [Compound 124] | > 15
40 | NC(=O)c1ncc(N2CCCCC2)nc1Nc1ccc(N2CCN(C(=O)CCOCCCc3cccc4c3CN(C3CCC(=O)NC3=O)C4=O)CC2)cc1 (stereo not shown) [Compound 67] | > 15
41 | Cn1c(=O)n(C2CCC(=O)NC2=O)c2ccc(N3CCC(CN4CCC(c5ccc(Nc6nc(N7CCCCC7)cnc6C(N)=O)cc5)CC4)CC3)cc21 (stereo not shown) [Compound 179] | < 5
42 | CN1CCN([C@@H]2CCCN(c3cnc(C(N)=O)c(Nc4ccc(C5(C)CCN(C(=O)CCOCCNc6cccc7c6C(=O)N(C6CCC(=O)NC6=O)C7=O)CC5)cc4)n3)C2)C1=O (stereo partly shown) [Compound 28] | 5 to 15
43 | NC(=O)c1ncc(N2CCCCC2)nc1Nc1ccc(C2CCN(CC3CCN(c4ccc5ccn(C6CCC(=O)NC6=O)c(=O)c5c4)CC3)CC2)cc1 (stereo not shown) [Compound 163] | < 5
